Results taken from patent EP2125859B1, “ESTRATRIENE DERIVATIVES AND THEIR USES AS 17BETA-HYDROXYSTEROID DEHYDROGENASE INHIBITORS” (Abbott Products GmbH, priority 2006, dated 2008).

Key:
[1] = target: T1, recombinant human 17β-HSD1 (Homo sapiens, UniProt P14061); assay: Inhibition of recombinant human 17β-HSD1 (HPLC assay, conversion of 3H-estrone to estradiol); assay type: biochemical; conditions: 30 nM 3H-estrone, 1 mM NADPH, 30 min at RT; for inhibition at 0.1 µM / inhibition at 1 µM: 0.5 h, read-out: inhibition of rec. 17β-HSD1
T1 construct: made in house; host or cells: Sf9 insect cells (baculovirus, Bac to Bac Expression System)
T1 sequence (P14061 1-328): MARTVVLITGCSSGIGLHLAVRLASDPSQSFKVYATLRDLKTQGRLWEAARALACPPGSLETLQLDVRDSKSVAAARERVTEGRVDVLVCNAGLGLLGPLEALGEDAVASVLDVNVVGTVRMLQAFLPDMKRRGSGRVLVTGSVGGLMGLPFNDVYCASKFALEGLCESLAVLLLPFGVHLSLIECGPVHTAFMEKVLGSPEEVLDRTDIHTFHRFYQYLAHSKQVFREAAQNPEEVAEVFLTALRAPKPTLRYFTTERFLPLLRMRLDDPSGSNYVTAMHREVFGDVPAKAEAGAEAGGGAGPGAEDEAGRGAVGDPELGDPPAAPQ
Method: Inhibition of the 17β-hydroxysteroid dehydrogenase type 1 enzyme 17β-HSD1 purification: Recombinant baculovirus was generated by the "Bac to Bac Expression System" (Invitrogen). Recombinant bacmid was transfected to Sf9 insect cells using "Cellfectin Reagent" (Invitrogen). 60h later cells were harvested; the microsomal fraction was isolated as described by Puranen et al. (1994). Aliquots were stored frozen until determination of enzymatic activity.
Assay - Inhibition of recombinant human 17β-HSD1: Recombinant protein (0.1 µg/ml) was incubated in 20 mM KH2PO4 pH 7.4 with 30 nM 3H-estrone and 1 mM NADPH for 30 min at RT, in the presence of potential inhibitors at concentrations of 1 µM or 0.1 µM. Inhibitor stock solutions were prepared in DMSO. Final concentration of DMSO was adjusted to 1 % in all samples. The enzyme reaction was stopped by addition of 10 % trichloroacetic acid (final concentration). Samples were centrifuged in a microtiter plate at 4000 rpm for 10 min. Supernatants were applied to reverse phase HPLC on a Waters Symmetry C18 column, equipped with a Waters Sentry Guard column. Isocratic HPLC runs were performed at RT at a flow rate of 1 ml/min of acetonitrile:water 48:52 as running solvent. Radioactivity was monitored in the eluate by a Packard Flow Scintillation Analyzer. Total radioactivity for estrone and estradiol were determined in each sample and percent conversion of estrone to estradiol was calculated according to the following formula: [formula] [formula]
The values "% inhibition" were determined for exemplified compounds, and the results are summarized in table 4 (for 17β-HSD1). table 4: HSD 1 inhibition values in % of selected compounds of formula I

17β-HSD3 = target: T2, 17β-HSD3 (Homo sapiens, UniProt P37058); assay: Inhibition of 17β-HSD3 in MCF-7 cell lines stably expressing the enzyme (HPLC, tritium labeled androstenedione); assay type: cell-based; conditions: MCF7, MCF-7 cells expressing 17β-HSD3, androstenedione 2 nM
T2 construct: expressed in transfected cells; host or cells: MCF-7 cells stably expressing 17β-HSD3
T2 sequence (P37058 1-310): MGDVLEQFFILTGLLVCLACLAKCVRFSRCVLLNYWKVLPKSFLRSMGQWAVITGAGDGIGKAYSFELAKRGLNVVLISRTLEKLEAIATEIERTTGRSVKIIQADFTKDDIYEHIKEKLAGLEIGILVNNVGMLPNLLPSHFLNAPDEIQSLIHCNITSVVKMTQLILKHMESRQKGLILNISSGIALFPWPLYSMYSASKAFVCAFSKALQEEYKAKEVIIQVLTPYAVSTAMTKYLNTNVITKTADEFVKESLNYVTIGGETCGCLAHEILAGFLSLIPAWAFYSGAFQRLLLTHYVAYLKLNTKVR
Method: The compounds were screened in respect of 17β-HSD3 enzyme activity in vitro on established MCF-7 cell lines, each stably expressing the 17β-HSD3 enzyme. The interconversion of substrate by 17β-HSD3 and the 17β-HSD3 inhibiting activity of chemical compounds in these cell lines were detected by HPLC system.
Varying amounts of the test compounds were incubated in the growth medium of the 17β-HSD3 expressing cells together tritium labeled androstenedione (2 nM). The medium samples were removed after exact incubation time and the reaction is stopped by trichloroacetic acid (TCA). The samples were analyzed by HPLC-coupled flow scintillation analysis.
Conversion: The 17β-HSD3 inhibiting activity of an individual test compound was calculated by comparing the conversion of a control sample without any test compound (referred to as "Negative Control") to the (reduced) conversion of the test sample containing the particular compound to be tested (referred to as "Test Sample"). [formula]
Two concentrations of each compound were used. The number of the compound refers to the numbers indicated in the Experimental Section.
The values "% inhibition" were determined for exemplified compounds, and the results are summarized in table 5 (HSD 3). table 5: 17β-HSD3 inhibition values in % of selected compounds of formula I

Row | Compound | inhibition at 0.1 µM ([1]; 100 nM inhibitor) | inhibition at 1 µM ([1]; 1 µM inhibitor) | inhibition at 1 µM (17β-HSD3) | inhibition at 10 µM (17β-HSD3) | inhibition of rec. 17β-HSD1 ([1]; 100 nM inhibitor) | inhibition of rec. 17β-HSD1 ([1]; 1 µM inhibitor)
1 | C[C@]12CC[C@@H]3c4ccc(O)cc4CC[C@H]3[C@@H]1[C@H](CCCn1cc(-c3ccc(OC(F)(F)F)cc3)nn1)CC2=O [Compound 32, 3-Hydroxy-15β-{3-[4-(4-trifluoromethoxy-phenyl)-[1,2,3]triazol-1-yl]-propyl}-estra-1,3,5(10)-trien-17-one] | 67% | 81% |  |  |  | 
2 | C[C@]12CC[C@@H]3c4ccc(O)cc4CC[C@H]3[C@@H]1[C@H](CCCn1cc(CC3CCCCC3)nn1)CC2=O [Compound 21, 3-Hydroxy-15β-[3-(4-cyclohexylmethyl-[1,2,3]triazol-1-yl)-propyl]-estra-1,3,5(10)-trien-17-one] | 50% | 86% |  |  |  | 
3 | C[C@]12CC[C@@H]3c4ccc(O)cc4CC[C@H]3[C@@H]1[C@H](CCn1cc(-c3ccc(OC(F)(F)F)cc3)nn1)CC2=O [Compound 13, 3-Hydroxy-15β-{2-[4-(4-trifluoromethoxy-phenyl)-[1,2,3]triazol-1-yl]-ethyl}-estra-1,3,5(10)-trien-17-one] | 83% | 92% |  |  |  | 
4 | COc1ccc(-c2cn(CC[C@@H]3CC(=O)[C@@]4(C)CC[C@@H]5c6ccc(O)cc6CC[C@H]5[C@H]34)nn2)cc1 [Compound 11, 3-Hydroxy-15β-{2-[4-(4-methoxy-phenyl)-[1,2,3]triazol-1-yl]-ethyl}-estra-1,3,5(10)-trien-17-one] | 75% | 93% |  |  |  | 
5 | C[C@]12CC[C@@H]3c4ccc(O)cc4CC[C@H]3[C@@H]1[C@H](CCn1cc(-c3cccc(O)c3)nn1)CC2=O [Compound 2, 3-Hydroxy-15β-{2-[4-(3-hydroxy-phenyl)-[1,2,3]triazol-1-yl]-ethyl}-estra-1,3,5(10)-trien-17-one] | 88% | 97% |  |  |  | 
6 | C[C@]12CC[C@@H]3c4ccc(O)cc4CC[C@H]3[C@@H]1[C@H](CCCn1cc(CCc3ccccc3)nn1)CC2=O [Compound 8, 3-Hydroxy-15β-[3-(4-phenethyl-[1,2,3]triazol-1-yl)-propyl]-estra-1,3,5(10)-trien-17-one] | 81% | 93% | 6% | 61% |  | 
7 | C[C@]12CC[C@@H]3c4ccc(O)cc4CC[C@H]3[C@@H]1[C@H](CCn1cc(-c3ccccc3F)nn1)CC2=O [Compound 7, 3-Hydroxy-15β-{2-[4-(2-fluoro-phenyl)-[1,2,3]triazol-1-yl]-ethyl}-estra-1,3,5(10)-trien-17-one] | 81% | 94% | 12% | 36% |  | 
8 | CC(C)Cc1cn(CCC[C@H]2CC(=O)[C@@]3(C)CC[C@@H]4c5ccc(O)cc5CC[C@H]4[C@H]23)nn1 [Compound 31, 3-Hydroxy-15-[3-(4-isobutyl-[1,2,3]triazol-1-yl)-propyl]-13-methyl-6,7,8,9,11,12,13,14,15,16-decahydro-cyclopenta[a]phenanthren-17-one] | 32% | 82% |  |  |  | 
9 | C[C@]12CC[C@@H]3c4ccc(O)cc4CC[C@H]3[C@@H]1[C@H](CCn1cc(CCc3ccccc3)nn1)CC2=O [Compound 1, 3-Hydroxy-15ß-[2-(4-phenethyl-[1,2,3]triazol-1-yl)-ethyl]-estra-1,3,5(10)-trien-17-one] | 92% | 98% |  |  |  | 
10 | C[C@]12CC[C@@H]3c4ccc(O)cc4CC[C@H]3[C@@H]1[C@H](CCn1cc(-c3ccccc3C(F)(F)F)nn1)CC2=O [Compound 19, 3-Hydroxy-15β-{2-[4-(2-trifluoromethyl-phenyl)-[1,2,3]triazol-1-yl]-ethyl}-estra-1,3,5(10)-trien-17-one] | 71% | 87% | 11% | 52% |  | 
11 | C[C@]12CC[C@@H]3c4ccc(O)cc4CC[C@H]3[C@@H]1[C@H](CCCc1cn(-c3ccc(F)cc3F)nn1)CC2=O [Compound 301, 15β-{3-[1-(2,4-difluorophenyl)-1H-1,2,3-triazol-4-yl]propyl}-3-hydroxyestra-1(10),2,4-trien-17-one] | 82% | 88% | 24% | 57% |  | 
12 | CC(C)CCc1cn(CCC[C@H]2CC(=O)[C@@]3(C)CC[C@@H]4c5ccc(O)cc5CC[C@H]4[C@H]23)nn1 [Compound 30, 3-hydroxy-15-[3-(4-isopentyl-[1,2,3]triazol-1-yl)-propyl]-13-methyl-6,7,8,9,11,12,13,14,15,16-decahydro-cyclopenta[a]phenanthren-17-one] | 25% | 82% |  |  |  | 
13 | COC(=O)c1ccc(-c2cn(CCC[C@@H]3CC(=O)[C@@]4(C)CC[C@@H]5c6ccc(OC)cc6CC[C@H]5[C@H]34)nn2)cc1 [Compound 89, 4-{1-[3-(3-Methoxy-15β-17-oxo-estra-1,3,5(10)-trien-15-yl)-propyl]-1H-[1,2,3]triazol-4-yl}-benzoic acid methyl ester] |  |  |  |  | 11% | 52%
14 | C[C@]12CC[C@@H]3c4ccc(O)cc4CC[C@H]3[C@@H]1[C@H](CCn1cc(-c3ccc(C(F)(F)F)cc3)nn1)CC2=O [Compound 10, 3-Hydroxy-15β-{2-[4-(4-trifluoromethyl-phenyl)-[1,2,3]triazol-1-yl]-ethyl}-estra-1,3,5(10)-trien-17-one] | 83% | 93% |  |  |  | 
15 | C[C@]12CC[C@@H]3c4ccc(O)cc4CC[C@H]3[C@@H]1[C@H](CCn1cc(-c3cccc(C(F)(F)F)c3)nn1)CC2=O [Compound 9, 3-Hydroxy-15β-{2-[4-(3-trifluoromethyl-phenyl)-[1,2,3]triazol-1-yl]-ethyl}-estra-1,3,5(10)-trien-17-one] | 84% | 93% |  |  |  | 
16 | C[C@]12CC[C@@H]3c4ccc(O)cc4CC[C@H]3[C@@H]1[C@H](CCCn1cc(-c3ccc(F)cc3F)nn1)CC2=O [Compound 28, 3-Hydroxy-15β-{3-[4-(2,4-difluoro-phenyl)-[1,2,3]triazol-1-yl]-propyl}-estra-1,3,5(10)-trien-17-one] | 40% | 83% |  |  |  | 
17 | C[C@]12CC[C@@H]3c4ccc(O)cc4CC[C@H]3[C@@H]1[C@H](CCCn1cc(-c3cc(F)cc(F)c3)nn1)CC2=O [Compound 18, 3-Hydroxy-15ß-{3-[4-(3,5-Difluoro-phenyl)-[1,2,3]triazol-1-yl]-propyl}-estra-1,3,5(10)-trien-17-one] | 64% | 88% |  |  |  | 
18 | C[C@]12CC[C@@H]3c4ccc(O)cc4CC[C@H]3[C@@H]1[C@H](CCn1cc(-c3ccc(F)cc3F)nn1)CC2=O [Compound 3, 3-Hydroxy-15β-{2-[4-(2,4-difluoro-phenyl)-[1,2,3]triazol-1-yl]-ethyl}-estra-1,3,5(10)-trien-17-one] | 86% | 96% |  |  |  | 
